ChEMBL document CHEMBL1201862, “PubChem BioAssay data set” (2004)
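The compound was tested at five concentrations on cells cultured in 96-well plates, with a 48-hour exposure period. At the GI50, growth is halved.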 The source made the active and inactive calls. Rule as the data show it: active = GI50 up to about 1.1 µM and inactive = higher.

Columns and labels:
Assay in all cases: growth of human tumour cells (NCI), 48 h
[1] = test system: A498
[2] = test system: ACHN
[3] = test system: BT-549
[4] = test system: COLO 205
[5] = test system: HL-60
[6] = test system: IGROV-1
[7] = test system: MCF7
[8] = test system: MDA-N
[9] = test system: Malme-3M
[10] = test system: NCI-H23
[11] = test system: RXF 393
[12] = test system: SF-268
[13] = test system: SR
[14] = test system: T47D
[15] = test system: UO-31
[16] = test system: KM12
[17] = test system: MDA-MB-231
[18] = test system: NCI-H226
[19] = test system: NCI-H460

| SMILES | GI50 [1] | GI50 [2] | GI50 [3] | GI50 [4] | GI50 [5] | GI50 [6] | GI50 [7] | GI50 [8] | GI50 [9] | GI50 [10] | GI50 [11] | GI50 [12] | GI50 [13] | GI50 [14] | GI50 [15] | GI50 [16] | GI50 [17] | GI50 [18] | GI50 [19] |
| --- | --- | --- | --- | --- | --- | --- | --- | --- | --- | --- | --- | --- | --- | --- | --- | --- | --- | --- | --- |
| COc1cc(C2SCC(=O)N2NC(=O)c2ccc(NC(C)=O)cc2OC)ccc1O (stereo unspecified) | 7.59 µM (inactive) | 63 µM (inactive) | > 100 µM (inactive) | > 100 µM (inactive) | 54.2 µM (inactive) | 58.2 µM (inactive) | 51.5 µM (inactive) | > 100 µM (inactive) | > 100 µM (inactive) | 92.9 µM (inactive) | 39.3 µM (inactive) | 23.7 µM (inactive) | > 100 µM (inactive) | 67.1 µM (inactive) | > 100 µM (inactive) |  |  |  |  |
| C(CCCCc1nnc(N2CCCCC2)o1)CCCc1nnc(N2CCCCC2)o1 | > 100 µM (inactive) | > 100 µM (inactive) | > 100 µM (inactive) | > 100 µM (inactive) | > 100 µM (inactive) | > 100 µM (inactive) | > 100 µM (inactive) |  | > 100 µM (inactive) | > 100 µM (inactive) | > 100 µM (inactive) | > 100 µM (inactive) |  |  | > 100 µM (inactive) | > 100 µM (inactive) | > 100 µM (inactive) | > 100 µM (inactive) | > 100 µM (inactive) |
| COC(=O)NCCc1n[nH]c2c1C(=O)C=C(OC)C2=O |  | 19.1 µM (inactive) |  | 24.8 µM (inactive) | 16.6 µM (inactive) | 19.9 µM (inactive) | 27.2 µM (inactive) | 17.9 µM (inactive) | 15.5 µM (inactive) | 20 µM (inactive) | 17.6 µM (inactive) | 18.5 µM (inactive) | 15 µM (inactive) |  | 24.3 µM (inactive) | 20.9 µM (inactive) | 16.1 µM (inactive) | 23 µM (inactive) | > 100 µM (inactive) |
| CCN(CC)CC1CCCCN1CC(=O)N1c2ccccc2NC(=O)c2ccccc21 (stereo unspecified) | > 100 µM (inactive) | > 100 µM (inactive) |  | > 100 µM (inactive) | > 100 µM (inactive) | > 100 µM (inactive) | > 100 µM (inactive) | > 100 µM (inactive) | > 100 µM (inactive) | > 100 µM (inactive) | > 100 µM (inactive) | > 100 µM (inactive) | > 100 µM (inactive) | > 100 µM (inactive) | 23.9 µM (inactive) | > 100 µM (inactive) | > 100 µM (inactive) | > 100 µM (inactive) | > 100 µM (inactive) |
| C=CCN1C(=O)/C(=C/c2ccccc2)NC1=S | 38.3 µM (inactive) | > 100 µM (inactive) | > 100 µM (inactive) | > 100 µM (inactive) | 43.5 µM (inactive) | > 100 µM (inactive) | > 100 µM (inactive) |  | > 100 µM (inactive) | > 100 µM (inactive) | > 100 µM (inactive) | > 100 µM (inactive) | > 100 µM (inactive) | > 100 µM (inactive) | > 100 µM (inactive) | > 100 µM (inactive) | > 100 µM (inactive) | 15.6 µM (inactive) | > 100 µM (inactive) |
| CCOC(=O)C(=CNC(=S)Nc1c(CC)cccc1CC)C(=O)OCC | > 100 µM (inactive) | > 100 µM (inactive) |  | > 100 µM (inactive) | > 100 µM (inactive) | > 100 µM (inactive) | > 100 µM (inactive) | > 100 µM (inactive) | > 100 µM (inactive) | > 100 µM (inactive) | > 100 µM (inactive) | > 100 µM (inactive) | > 100 µM (inactive) | > 100 µM (inactive) | > 100 µM (inactive) | > 100 µM (inactive) | > 100 µM (inactive) | > 100 µM (inactive) | > 100 µM (inactive) |
| COc1ccccc1CNC1=Nc2ccncc2S(=O)(=O)N1c1ccccc1 | 45.8 µM (inactive) | > 100 µM (inactive) | > 100 µM (inactive) | 63.4 µM (inactive) | 41.1 µM (inactive) | > 100 µM (inactive) | 79.4 µM (inactive) |  | 37.7 µM (inactive) | 85.1 µM (inactive) | 2.47 µM (inactive) |  | 92.7 µM (inactive) |  | > 100 µM (inactive) | 56.6 µM (inactive) |  | > 100 µM (inactive) | 60.4 µM (inactive) |
| CC(CO)C1=CC(C#CCOCc2ccccc2)N(C(=O)Oc2ccccc2)c2ccccc21 (stereo unspecified) | 4.59 µM (inactive) | 6.9 µM (inactive) |  | 15.1 µM (inactive) | 26.3 µM (inactive) | 28.2 µM (inactive) |  | 21.3 µM (inactive) |  | 8.89 µM (inactive) | 3.33 µM (inactive) | 24.9 µM (inactive) | 9.53 µM (inactive) | 3.76 µM (inactive) | 26.4 µM (inactive) | 14.9 µM (inactive) | 39.6 µM (inactive) | 40.7 µM (inactive) | 18 µM (inactive) |
| CN1C(=O)C(C(=O)Nc2ccccn2)C2C[C@@]1(C)Oc1ccccc12 (stereo partly specified) | 11.1 µM (inactive) | 0.861 µM (active) | > 100 µM (inactive) | > 100 µM (inactive) | > 100 µM (inactive) | > 100 µM (inactive) |  | > 100 µM (inactive) | > 100 µM (inactive) | > 100 µM (inactive) | > 100 µM (inactive) | > 100 µM (inactive) |  |  | > 100 µM (inactive) | > 100 µM (inactive) | > 100 µM (inactive) | > 100 µM (inactive) | > 100 µM (inactive) |
| CC(C)(C)C(=O)C(Cc1ccccc1)C(=O)C(C)(C)C | > 100 µM (inactive) | > 100 µM (inactive) |  | > 100 µM (inactive) | 30.5 µM (inactive) | > 100 µM (inactive) | > 100 µM (inactive) | > 100 µM (inactive) | > 100 µM (inactive) | > 100 µM (inactive) | 98.6 µM (inactive) | > 100 µM (inactive) | 51.3 µM (inactive) | 25.5 µM (inactive) | 81.7 µM (inactive) | > 100 µM (inactive) | > 100 µM (inactive) | > 100 µM (inactive) | > 100 µM (inactive) |
| Cn1ncc2c(Cl)ncnc21 | > 100 µM (inactive) | > 100 µM (inactive) | > 100 µM (inactive) | > 100 µM (inactive) | > 100 µM (inactive) | > 100 µM (inactive) | > 100 µM (inactive) | > 100 µM (inactive) |  | > 100 µM (inactive) | > 100 µM (inactive) | > 100 µM (inactive) | > 100 µM (inactive) | > 100 µM (inactive) | > 100 µM (inactive) | > 100 µM (inactive) |  | > 100 µM (inactive) | > 100 µM (inactive) |
| Cc1c(C(=O)O)sc2nc[nH]c(=O)c12 |  | > 100 µM (inactive) |  | > 100 µM (inactive) | > 100 µM (inactive) | 84.1 µM (inactive) | > 100 µM (inactive) |  | > 100 µM (inactive) | > 100 µM (inactive) | > 100 µM (inactive) | > 100 µM (inactive) |  | > 100 µM (inactive) | > 100 µM (inactive) | > 100 µM (inactive) | > 100 µM (inactive) | 25.1 µM (inactive) | > 100 µM (inactive) |
| OC(CC(O)(C(F)(F)F)C(F)(F)F)c1ccc(C(O)CC(O)(C(F)(F)F)C(F)(F)F)cc1 (stereo unspecified) | 12.6 µM (inactive) | 14.4 µM (inactive) |  |  | 17.1 µM (inactive) | 10.9 µM (inactive) |  | 19.5 µM (inactive) | 14.2 µM (inactive) | 12.9 µM (inactive) | 15 µM (inactive) | 14.9 µM (inactive) | 17.1 µM (inactive) | 13.3 µM (inactive) | 10.8 µM (inactive) |  | 14.3 µM (inactive) |  | 14.7 µM (inactive) |
| Nc1ccc2ccc(N3CCNCC3)nc2n1 |  | 74.8 µM (inactive) | 65.8 µM (inactive) | 49.1 µM (inactive) | 34 µM (inactive) | 19.5 µM (inactive) | 70 µM (inactive) | 75 µM (inactive) | 38.9 µM (inactive) | 56.8 µM (inactive) |  | 44.7 µM (inactive) | 33.4 µM (inactive) |  | 50.4 µM (inactive) | 48.2 µM (inactive) | 37.3 µM (inactive) | 21.4 µM (inactive) | 44 µM (inactive) |
| COC(=O)[C@@H](Cc1ccccc1)NNC(=O)OC(C)(C)C | > 100 µM (inactive) | > 100 µM (inactive) | > 100 µM (inactive) | > 100 µM (inactive) | > 100 µM (inactive) | > 100 µM (inactive) | > 100 µM (inactive) |  | > 100 µM (inactive) | > 100 µM (inactive) | > 100 µM (inactive) | > 100 µM (inactive) | > 100 µM (inactive) | > 100 µM (inactive) |  | > 100 µM (inactive) | > 100 µM (inactive) |  | > 100 µM (inactive) |
| O=C(/C=C1\NC(=O)c2ccccc2N1)c1ccncc1 | > 100 µM (inactive) | > 100 µM (inactive) |  | > 100 µM (inactive) | > 100 µM (inactive) | > 100 µM (inactive) |  |  | > 100 µM (inactive) | > 100 µM (inactive) |  | > 100 µM (inactive) | > 100 µM (inactive) |  | > 100 µM (inactive) |  |  | > 100 µM (inactive) | > 100 µM (inactive) |
| CC(C)C1=CC23CCC4C(C)(C(=O)O)CCCC4(C)C2CC1C(C(=O)O)C3C(=O)O (stereo unspecified) | > 100 µM (inactive) | > 100 µM (inactive) | > 100 µM (inactive) |  |  | > 100 µM (inactive) |  |  | > 100 µM (inactive) | > 100 µM (inactive) | > 100 µM (inactive) | > 100 µM (inactive) | > 100 µM (inactive) | > 100 µM (inactive) | > 100 µM (inactive) | > 100 µM (inactive) | > 100 µM (inactive) | > 100 µM (inactive) | > 100 µM (inactive) |
